{
  "source": "patent US11300570B2",
  "about": "“Therapeutic and diagnostic methods for cancer” (Genentech, Inc., priority 2016, dated 2022)",
  "system": "locally advanced or metastatic NSCLC (PD-L1-unselected patients)",
  "test": "POPLAR Phase II randomized trial, atezolizumab vs docetaxel, in 2L+ PD-L1-unselected NSCLC, efficacy by tTMB",
  "assay_type": "in vivo, human",
  "conditions": "POPLAR; for OS HR (95% CI) / PFS HR (95% CI): atezolizumab vs docetaxel",
  "text": "Patients were eligible for enrollment in the POPLAR study if they had locally advanced or metastatic (e.g., stage IIIB, stage IV, or recurrent) NSCLC; disease progression during or following treatment with a prior platinum-containing regimen for locally advanced, unresectable/inoperable, or metastatic NSCLC, or disease recurrence within 6 months of treatment with a platinum-based adjuvant/neoadjuvant regimen; measurable disease, as defined by RECIST v1.1; and an ECOG performance status of 0 or 1. Participants were randomized to receive either atezolizumab at a dose of 1200 mg intravenously every three weeks or docetaxel 75 mg per meter square (mg/m^2) intravenously every three weeks. Treatment with atezolizumab could be continued as long as participants were experiencing clinical benefit, i.e., in the absence of unacceptable toxicity or symptomatic deterioration attributed to disease progression. Pre-treatment tumor samples from patients in the Phase III OAK trial (Clinical Trial ID No.: NCT02008227) were also evaluated for tTMB. Patients were eligible for enrollment in the OAK study if they had locally advanced or metastatic (e.g., stage IIIB, stage IV, or recurrent) NSCLC; disease progression during or following treatment with a prior platinum-containing regimen for locally advanced, unresectable/inoperable, or metastatic NSCLC, or disease recurrence within 6 months of treatment with a platinum-based adjuvant/neoadjuvant regimen; measurable disease, as defined by RECIST v1.1; and an ECOG performance status of 0 or 1. Participants were randomized to receive either atezolizumab at a dose of 1200 mg intravenously every three weeks or docetaxel 75 mg per square meter (mg/m^2) intravenously every three weeks. Treatment with atezolizumab could be continued as long as participants were experiencing clinical benefit, i.e., in the absence of unacceptable toxicity or symptomatic deterioration attributed to disease progression.\nData from the single-arm, PD-L1-selected trials BIRCH and FIR were combined and analyzed to examine the association between tTMB and clinical outcomes among PD-L1-selected patients. Data from the randomized, PD-L1-unselected trial, POPLAR, were analyzed separately and treatment effects between the atezolizumab- and docetaxel-treatment arms were compared.\nTo identify somatic mutations, tumor samples (e.g., archival tumor samples) were processed as described in Frampton et al. Nat. Biotechnol. 31:1023-31, 2013. Sequencing libraries were constructed to sequence and analyze samples. In addition to standard mutation processing, a mutation load estimation algorithm was applied that, based on the number of somatic mutations and/or rearrangements detected in Table 1 or Table 2, respectively, extrapolates to the exome or the genome as a whole. For purposes of mutation load estimation, all coding short variant alterations, base substitutions, and indels detected in the genes listed in Table 1 and Table 2 were counted. Further, all coding alterations (base substitutions and indels), including synonymous alterations, with the exception of known oncogenic driver mutations, in the genes listed in Table 1 and Table 2 were counted. However, numerous classes of detected alterations were not counted: non-coding alterations; alterations with known (occurring as known somatic alterations in the COSMIC database (Forbes et al. (2014) Nucl. Acids Res. 43:D805-11) and likely (truncations in tumor suppressor genes) functional status; known germline alterations in the dbSNP database (Sherry et al. (2001) Nucleic Acids Res. 29(1):308-11); germline alterations occurring with two or more counts in the ExAC database (Exome Aggregation Consortium (ExAC), Cambridge, Mass.); alterations that are predicted to be germline in the specimen being assessed; and alterations that are predicted to be germline in a cohort of >60,000 clinical specimens. […]",
  "key": {"[1]": {"conditions": "tTMB quantile ≥25%, unadjusted, unstratified"}, "[2]": {"conditions": "tTMB quantile ≥50% (median), unadjusted, unstratified"}, "[3]": {"conditions": "tTMB quantile ≥75%, unadjusted, unstratified"}},
  "data": [
    {"substance": "atezolizumab", "values": [
      {"measurement": "association of tTMB with efficacy of atezolizumab compared to docetaxel", "setting": "PD-L1-unselected 2L+ patients with NSCLC", "result": "trend towards an association of tTMB with improved efficacy"},
      {"measurement": "clinical benefit in patients with low or no PD-L1 expression on TC and IC", "setting": "long-term follow-up (FIG. 1)", "result": "can also derive clinical benefit"},
      {"measurement": "ORR (confirmed per RECIST v1.1) with increasing tTMB", "setting": "per treatment arm", "result": "higher ORR (confirmed per RECIST v1.1) was associated with increased tTMB"},
      {"measurement": "ORR", "setting": "BEP (n = 54 atezolizumab vs 38 docetaxel)", "result": 13, "unit": "%"},
      {"measurement": "ORR", "setting": "ITT (n = 144 atezolizumab vs 143 docetaxel)", "result": 15, "unit": "% vs 15%"},
      {"measurement": "OS HR (95% CI)", "setting": "BEP (n = 54 vs 38)", "result": "0.65 (0.38, 1.12)"},
      {"measurement": "PFS HR (95% CI)", "setting": "BEP (n = 54 vs 38), unadjusted, unstratified", "result": "0.98 (0.63, 1.53)"},
      {"measurement": "OS HR (95% CI)", "setting": "ITT (n = 144 vs 143)", "result": "0.69 (0.49, 0.98)"},
      {"measurement": "PFS HR (95% CI)", "setting": "ITT (n = 144 vs 143), unadjusted, unstratified", "result": "0.92 (0.71, 1.20)"},
      {"measurement": "OS HR (95% CI)", "setting": "[1]", "result": "0.55 (0.29, 1.03)"},
      {"measurement": "PFS HR (95% CI)", "setting": "[1]", "result": "0.88 (0.52, 1.48)"},
      {"measurement": "OS HR (95% CI)", "setting": "[2]", "result": "0.48 (0.23, 1.04)"},
      {"measurement": "PFS HR (95% CI)", "setting": "[2]", "result": "0.49 (0.25, 0.93)"},
      {"measurement": "OS HR (95% CI)", "setting": "[3]", "result": "0.50 (0.15, 1.67)"},
      {"measurement": "PFS HR (95% CI)", "setting": "[3]", "result": "0.49 (0.19, 1.30)"},
      {"measurement": "ORR", "setting": "tTMB quantile ≥25%", "result": 14, "unit": "%"},
      {"measurement": "ORR", "setting": "tTMB quantile ≥50% (median)", "result": 20, "unit": "%"},
      {"measurement": "ORR", "setting": "tTMB quantile ≥75%", "result": 20, "unit": "%"}
    ]}
  ]
}
